How the values were obtained:
B. subtilis 168 = test: Bliss interaction score (quartile over a dose matrix) (fitness difference); higher = more antagonism (negative = synergy)
Outline: (§1)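 The Bliss score is observed minus expected fitness, where expected fitness is the product of the single-drug fitness values inferred from the combination data. Fitness is the OD595 at the onset of stationary phase over the plate's robust no-drug mean, capped at 1. Scores are summarised by quartiles over technical, biological and donor/recipient replicates.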

S. aureus DSM 20231 [1] = test: as above
Outline: as §1

S. pneumoniae D39V [2] = test: as above
Outline: as §1

S. aureus Newman [3] = test: as above
Outline: as §1

S. aureus DSM 20231 [4] = test: fitness (endpoint OD595 vs no drug) (fraction); higher = more growth
Outline: (§2)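 Fitness was defined as the optical density at the transition into stationary phase relative to the robust mean of no-drug control wells. Values were capped at 1. Cultures were started at OD595 0.01 in 384-well plates (30 µl, or 55 µl for S. pneumoniae) in TSB, LB Lennox or CY at 37 °C. OD595 was recorded every 30 min over 14 h, with the first reading subtracted as background.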

S. pneumoniae D39V [5] = test: as above
Outline: as §2

S. aureus Newman [6] = test: as above
Outline: as §2
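For Bliss interaction score (quartile over a dose matrix) in this document: first quartile when negative (synergy) and third quartile when positive (antagonism).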

CCC[C@@H]1C[C@@H](C(=O)N[C@@H]([C@H]2O[C@H](SC)[C@H](O)[C@@H](O)[C@H]2O)[C@H](C)Cl)N(C)C1 [Clindamycin] + CN[C@H](CC(C)C)C(=O)N[C@H]1C(=O)N[C@@H](CC(N)=O)C(=O)N[C@H]2C(=O)N[C@H]3C(=O)N[C@H](C(=O)N[C@H](C(=O)O)c4cc(O)cc(O)c4-c4cc3ccc4O)[C@H](O)c3ccc(c(Cl)c3)Oc3cc2cc(c3O[C@@H]2O[C@H](CO)[C@@H](O)[C@H](O)[C@H]2O[C@H]2C[C@](C)(N)[C@H](O)[C@H](C)O2)Oc2ccc(cc2Cl)[C@H]1O [Vancomycin]
Details | Bliss interaction score
B. subtilis 168 | 0.0503
S. aureus DSM 20231 [1] | 0.0292
S. aureus Newman [3] | 0.135
S. pneumoniae D39V [2] | 0.111

Details | fitness
S. aureus DSM 20231 [4], first compound 0.125 µg/mL, partner 0.1875 µg/mL | 0.0642
S. aureus DSM 20231 [4], first compound 0.125 µg/mL, partner 0.375 µg/mL | 0.0657
S. aureus DSM 20231 [4], first compound 0.125 µg/mL, partner 0.75 µg/mL | 0.0731
S. aureus Newman [6], first compound 0.0312 µg/mL, partner 0.1875 µg/mL | 0.764
S. aureus Newman [6], first compound 0.0312 µg/mL, partner 0.375 µg/mL | 0.761
S. aureus Newman [6], first compound 0.0312 µg/mL, partner 0.75 µg/mL | 0.762
S. pneumoniae D39V [5], first compound 0.0125 µg/mL, partner 0.125 µg/mL | 0.782
S. pneumoniae D39V [5], first compound 0.0125 µg/mL, partner 0.25 µg/mL | 0.702
S. pneumoniae D39V [5], first compound 0.0125 µg/mL, partner 0.5 µg/mL | 0.0792
S. pneumoniae D39V [5], first compound 0.015 µg/mL, partner 0.03125 µg/mL | 0.89
S. pneumoniae D39V [5], first compound 0.015 µg/mL, partner 0.0625 µg/mL | 0.844
S. pneumoniae D39V [5], first compound 0.015 µg/mL, partner 0.125 µg/mL | 0.63
S. pneumoniae D39V [5], first compound 0.025 µg/mL, partner 0.125 µg/mL | 0.544
S. pneumoniae D39V [5], first compound 0.025 µg/mL, partner 0.25 µg/mL | 0.47
S. pneumoniae D39V [5], first compound 0.025 µg/mL, partner 0.5 µg/mL | 0.0715
S. pneumoniae D39V [5], first compound 0.03 µg/mL, partner 0.03125 µg/mL | 0.738
S. pneumoniae D39V [5], first compound 0.03 µg/mL, partner 0.0625 µg/mL | 0.7
S. pneumoniae D39V [5], first compound 0.03 µg/mL, partner 0.125 µg/mL | 0.526
S. pneumoniae D39V [5], first compound 0.05 µg/mL, partner 0.125 µg/mL | 0.296
S. pneumoniae D39V [5], first compound 0.05 µg/mL, partner 0.25 µg/mL | 0.237
S. pneumoniae D39V [5], first compound 0.05 µg/mL, partner 0.5 µg/mL | 0.0635
S. pneumoniae D39V [5], first compound 0.06 µg/mL, partner 0.03125 µg/mL | 0.501
S. pneumoniae D39V [5], first compound 0.06 µg/mL, partner 0.0625 µg/mL | 0.47
S. pneumoniae D39V [5], first compound 0.06 µg/mL, partner 0.125 µg/mL | 0.327

CCC[C@@H]1C[C@@H](C(=O)N[C@@H]([C@H]2O[C@H](SC)[C@H](O)[C@@H](O)[C@H]2O)[C@H](C)Cl)N(C)C1 [Clindamycin] + Cn1nnc(-c2ccc(-c3ccc(N4C[C@H](CO)OC4=O)cc3F)cn2)n1 [Tedizolid]
Details | Bliss interaction score
B. subtilis 168 | 0.134
S. aureus DSM 20231 [1] | -0.024
S. aureus Newman [3] | -0.0925
S. pneumoniae D39V [2] | 0.115

fitness
Details | partner 0.03125 µg/mL | partner 0.0625 µg/mL | partner 0.125 µg/mL | partner 0.25 µg/mL | partner 0.5 µg/mL
S. aureus DSM 20231 [4], first compound 0.0312 µg/mL | – | – | – | 0.314 | –
S. aureus DSM 20231 [4], first compound 0.0625 µg/mL | – | 0.0876 | 0.0753 | 0.0709 | –
S. aureus DSM 20231 [4], first compound 0.125 µg/mL | – | 0.0391 | 0.0406 | 0.0164 | –
S. aureus Newman [6], first compound 0.125 µg/mL | – | 0.0736 | 0.0453 | 0.0444 | –
S. pneumoniae D39V [5], first compound 0.0125 µg/mL | – | – | 0.551 | 0.434 | 0.201
S. pneumoniae D39V [5], first compound 0.015 µg/mL | 0.901 | 0.918 | 0.778 | – | –
S. pneumoniae D39V [5], first compound 0.025 µg/mL | – | – | 0.375 | 0.33 | 0.149
S. pneumoniae D39V [5], first compound 0.03 µg/mL | 0.781 | 0.814 | 0.721 | – | –
S. pneumoniae D39V [5], first compound 0.05 µg/mL | – | – | 0.224 | 0.166 | 0.097
S. pneumoniae D39V [5], first compound 0.06 µg/mL | 0.641 | 0.646 | 0.605 | – | –

O=C(O[C@@H]1Cc2c(O)cc(O)cc2O[C@@H]1c1cc(O)c(O)c(O)c1)c1cc(O)c(O)c(O)c1 [EGCG] + CCCCCCCCCC(=O)N[C@@H]1[C@H]([C@@H]([C@H](O[C@H]1OC2=C3C=C4C=C2OC5=C(C=C(C=C5)[C@H]([C@H]6C(=O)N[C@@H](C7=C(C(=CC(=C7)O)OC8[C@H]([C@H]([C@@H]([C@H](O8)CO)O)O)O)C9=C(C=CC(=C9)[C@H](C(=O)N6)NC(=O)[C@@H]4NC(=O)[C@@H]1C2=CC(=CC(=C2)OC2=C(C=CC(=C2)[C@H](C(=O)N[C@H](CC2=CC(=C(O3)C=C2)Cl)C(=O)N1)N)O)O)O)C(=O)O)O[C@H]1[C@@H]([C@H]([C@@H]([C@H](O1)CO)O)O)NC(=O)C)Cl)CO)O)O [Teicoplanin]
main component drawn
Details | Bliss interaction score
B. subtilis 168 | -0.096
S. aureus DSM 20231 [1] | 0.125
S. aureus Newman [3] | 0.0918
S. pneumoniae D39V [2] | 0.0672

fitness, main component drawn
Details | first compound 12.5 µg/mL | first compound 25 µg/mL | first compound 50 µg/mL
S. aureus DSM 20231 [4], partner 0.1562 µg/mL | 0.846 | 0.833 | 0.892
S. aureus DSM 20231 [4], partner 0.3125 µg/mL | 0.957 | 0.968 | 0.959
S. aureus DSM 20231 [4], partner 0.625 µg/mL | 0.935 | ≥ 1 | –
S. aureus Newman [6], partner 0.1562 µg/mL | 0.833 | 0.805 | 0.749
S. aureus Newman [6], partner 0.3125 µg/mL | 0.716 | 0.824 | 0.698
S. aureus Newman [6], partner 0.625 µg/mL | 0.819 | 0.806 | 0.823

fitness, S. aureus Newman [6], one replicate, main component drawn
Details | first compound 12.5 µg/mL | first compound 25 µg/mL | first compound 50 µg/mL
partner 0.62 µg/mL | 0.62 | 0.662 | 0.558
partner 1.24 µg/mL | 0.646 | 0.604 | 0.565
partner 2.48 µg/mL | 0.538 | 0.51 | 0.475
